These molecules were tested against Human immunodeficiency virus type 1 integrase (Human immunodeficiency virus 1, UniProt Q7ZJM1) (assay: Inhibition of Human immunodeficiency virus 1 integrase strand transfer activity).
Sequence of Human immunodeficiency virus type 1 integrase (Q7ZJM1 whole entry): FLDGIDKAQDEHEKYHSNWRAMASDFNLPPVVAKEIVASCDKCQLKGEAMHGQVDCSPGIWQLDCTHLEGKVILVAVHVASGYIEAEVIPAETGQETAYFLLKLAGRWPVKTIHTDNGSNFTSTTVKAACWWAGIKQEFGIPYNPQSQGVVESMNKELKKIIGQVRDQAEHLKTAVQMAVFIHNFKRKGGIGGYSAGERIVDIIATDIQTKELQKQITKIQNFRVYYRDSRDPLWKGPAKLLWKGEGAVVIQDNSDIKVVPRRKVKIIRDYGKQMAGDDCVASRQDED
For `Cc1cccc(/C=C/c2ccc3ccc(C(=O)O)c(O)c3n2)c1C`, the IC50 was 60.6 nM. Molecule `CCOC(=O)/C(O)=C/C(=O)c1cn(Cc2cccc(F)c2)c2ccccc2c1=O` [RDS-1624] has an IC50 of 326 nM. Work on `O=C(O)/C(O)=C/C(=O)c1ccc2[nH]cc(C(=O)/C=C(\O)C(=O)O)c(=O)c2c1` yielded an IC50 of 430 nM. For `O=C(O)/C(O)=C/C(=O)c1ccc2c(c1)c(=O)c(C(=O)/C=C(\O)C(=O)O)cn2-c1ccccc1`, the IC50 was 12 nM. With `O=C(O)/C(O)=C/C(=O)c1cn(Cc2cccc(F)c2)c2ccccc2c1=O` the IC50 was 31.3 nM. For `CC[C@@H](CO)n1cc(CO)c(=O)c2cc(Cc3ccccc3F)c(OC)cc21`, the IC50 was 7.2 nM. `O=C(O)/C(O)=C/C(=O)c1ccc2c(c1)c(=O)c(C(=O)O)cn2Cc1ccc(F)cc1` [13, RDS-1607] gave an IC50 of 1090 nM.

From ChEMBL document CHEMBL3044682, “QSAR modeling of bifunctional quinolonyl diketo acid derivatives as integrase inhibitors” (Med Chem Res, 2012)
